The compounds below were run on genotype A, “Long” strain RSV (assay: RSV-A assay (CPE, ATPlite readout in Hep-2 cells)). Details: human respiratory syncytial virus, activity class.
Assay type: cell-based, Human respiratory syncytial virus
Procedure, shortened: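 Protection from RSV-induced cytopathic effect measured by ATP content (ATPlite) after 5-day culture. Infection used genotype A Long virus at MOI 0.1 on 8,000 Hep-2 cells per well, with compound serially diluted 2-fold; values are EC50.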
`COc1cc(C(=O)NC[C@](O)(c2cc3c(c(-c4cccc(F)c4Cl)n2)OC[C@]3(C)C(N)=O)C(F)(F)F)cc2cn(C3(F)CC3)nc12` [Example 611] was tested, and the EC50 was < 200 nM. In the case of `COc1cc(C(=O)NC[C@](O)(c2cc3c(c(-c4ccsc4Cl)n2)OC[C@]3(C)C(N)=O)C2CC2)cc2cn(C3CC3)nc12` [Example 415], the EC50 is reported as < 200 nM. With `C[C@]1(C(N)=O)COc2c1cc([C@@](O)(CNC(=O)c1cc(OCCO)c3nn(C4CC4)cc3c1)C1CC1)nc2-c1ccc2c(c1Cl)OC(F)(F)O2` [Example 681] the EC50 was < 200 nM. For `COc1cc(C(=O)NC[C@](O)(c2cc3c(c(-c4cc(Cl)c(F)cc4F)n2)OC[C@]3(C)C(N)=O)C(C)C)cc2cn(C3CC3)nc12` [Example 476], the EC50 was < 200 nM. `COc1cc(C(=O)NCC(O)(c2cccc(F)c2)c2cc3c(c(-c4cc(C(F)(F)F)ncc4Cl)n2)OC[C@]3(C)C(N)=O)cc2cn(C3CC3)nc12` (some centres unmarked) [Example 379] was tested, and the EC50 was < 200 nM. With `COC1=CC(C(=O)NC[C@](O)(c2cc3c(c(-c4ccnc(C(F)(F)F)c4F)n2)OC[C@]3(C)C(N)=O)C2CC2)=CC2OC(C3CC3)=NC12` (some centres unmarked) [Example 801] the EC50 was < 200 nM. With `C[C@]1(C(N)=O)COc2c1cc([C@@](O)(CNC(=O)c1cc(Cl)c3[nH]ncc3c1)C1CC1)nc2-c1cc(F)c(F)cc1F` [Example 119] the EC50 was < 200 nM. `COc1nccc(-c2nc([C@@](O)(CNC(=O)c3cc(OC)c4nn(C(F)F)cc4c3)C3CC3)cc3c2OC[C@]3(C)C(N)=O)c1Cl` [Example 788] was tested, and the EC50 was < 200 nM. With `COc1cc(C(=O)NC[C@](O)(c2cc3c(c(-c4ccnc(C(F)F)c4Cl)n2)OC[C@]3(C)C(N)=O)C2CC2)cc2oc(C(F)F)nc12` [Example 542] the EC50 was < 200 nM. With `COc1cc(C(=O)NC[C@](O)(c2cc3c(c(-c4ccc(F)c(Cl)c4Cl)n2)OC[C@]3(C)C(N)=O)C2CC2)cc2cc(Cl)cnc12` [Example 320] the EC50 was < 200 nM. `COc1cc(C(=O)NC[C@](O)(c2cc3c(c(-c4cc(F)c(F)cc4F)n2)OC[C@]3(C)C(N)=O)C2CC2)cc2cc(Cl)nnc12` [Example 114] was tested, and the EC50 was < 200 nM. `COc1cc(C(=O)NC[C@@](O)(c2ccccc2)c2cc3c(c(-c4ccnc(F)c4Cl)n2)OC[C@]3(C)C(N)=O)cc2cn(C3(F)CC3)nc12` [Example 344] was tested, and the EC50 was < 200 nM. In the case of `COc1cc(C(=O)NC[C@@](O)(c2cccc(F)c2)c2cc3c(c(-c4ccnc(C)c4Cl)n2)OC[C@]3(C)C(N)=O)cc2cn(C3CC3)nc12` [Example 378], the EC50 is reported as < 200 nM. `COc1cc(C(=O)NC[C@](O)(c2cc3c(c(-c4ccnc(F)c4Cl)n2)OC[C@]3(C)C(N)=O)C2CC2)cc2cn(C3CC3)nc12` [Example 122] was tested, and the EC50 was < 200 nM. In the case of `COc1cc(C(=O)NC[C@](O)(c2cc3c(c(-c4cc(C(F)(F)F)ncc4F)n2)OC[C@]3(C)C(N)=O)C2CC2)cc2cc(C3CC3)nn12` [Example 661], the EC50 is reported as < 200 nM. For `COc1cc(C(=O)NC[C@](O)(c2cc3c(c(-c4cscc4C)n2)OC[C@]3(C)C(N)=O)C2CC2)cc2cn(C3CC3)nc12` [Example 414], the EC50 was < 200 nM. For `COc1cc(C(=O)NC[C@](O)(c2cc3c(c(-c4ccc5c(c4Cl)OC(F)(F)O5)n2)OC[C@]3(C)C(N)=O)C2CC2)cc2cc(Cl)cnc12` [Example 105], the EC50 was < 200 nM. `COc1nccc(-c2nc([C@@](O)(CNC(=O)c3cc(OC)n4nc(C5CC5)cc4c3)C3CC3)cc3c2OC[C@]3(C)C(N)=O)c1Cl` [Example 582] was tested, and the EC50 was < 200 nM. With `COc1cc(C(=O)NC[C@@](O)(c2cccc(F)c2)c2cc3c(c(-c4cc(F)ncc4Cl)n2)OC[C@]3(C)C(N)=O)cc2cn(C3CC3)nc12` [Example 376] the EC50 was < 200 nM. `COc1cc(C(=O)NC[C@](O)(c2cc3c(c(-c4ccnc(C(F)(F)F)c4F)n2)OC[C@]3(C)C(N)=O)C2CC2)cc2cn(C3(F)CC3)nc12` [Example 800] was tested, and the EC50 was < 200 nM. In the case of `COc1cc(C(=O)NC[C@@](O)(c2ccccc2)c2cc3c(c(-c4ccnc(F)c4Cl)n2)OC[C@]3(C)C(N)=O)cc2cc(Cl)cnc12` [Example 346], the EC50 is reported as < 200 nM. For `COc1cc(C(=O)NC[C@](O)(c2cc3c(c(-n4ccc5ccccc54)n2)OC[C@]3(C)C(N)=O)C2CC2)cc2cn(C3CC3)nc12` [Example 443], the EC50 was < 200 nM.

These compounds were tested on HMPV clinical isolate A2 strain TN 94-49 (assay: HMPV antiviral assay, Method 2 (LLC-MK2 cells with CP-100-356, ATP-Lite)). Details: human metapneumovirus, 168 h; hMPV A2 TN/94-49, LLC-MK2 cells with 4 μM CP-100-356, 7 days, ATP-Lite.
Assay type: cell-based
Procedure, shortened: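 EC50 comes from a four-parameter fit of percent cell viability (ATP-Lite, normalized to virus-only and cell-only wells) after 7 days at 37 °C. Infection used HMPV A2 TN 94-49 at MOI 0.16 in LLC-MK2 cells, with 2 μM P-gp inhibitor CP-100-356 and 2 μg/mL TPCK-trypsin final; dose range 200 nM top, 2.5-fold, 10 points, duplicate.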
With `C[C@]1(C(N)=O)COc2c1cc([C@@](O)(CNC(=O)c1cc(OCCO)c3nn(C4CC4)cc3c1)C1CC1)nc2-c1ccc2c(c1Cl)OC(F)(F)O2` [Example 681] the EC50 was < 200 nM. For `COC1=CC(C(=O)NC[C@](O)(c2cc3c(c(-c4ccnc(C(F)(F)F)c4F)n2)OC[C@]3(C)C(N)=O)C2CC2)=CC2OC(C3CC3)=NC12` (some centres unmarked) [Example 801], the EC50 was < 200 nM. In the case of `COc1nccc(-c2nc([C@@](O)(CNC(=O)c3cc(OC)c4nn(C(F)F)cc4c3)C3CC3)cc3c2OC[C@]3(C)C(N)=O)c1Cl` [Example 788], the EC50 is reported as < 200 nM. In the case of `COc1cc(C(=O)NC[C@](O)(c2cc3c(c(-c4cc(C(F)(F)F)ncc4F)n2)OC[C@]3(C)C(N)=O)C2CC2)cc2cc(C3CC3)nn12` [Example 661], the EC50 is reported as < 200 nM. For `COc1cc(C(=O)NC[C@](O)(c2cc3c(c(-c4ccnc(C(F)(F)F)c4F)n2)OC[C@]3(C)C(N)=O)C2CC2)cc2cn(C3(F)CC3)nc12` [Example 800], the EC50 was < 200 nM.

Same assay, conditions: human metapneumovirus; hMPV A2 TN/94-49, LLC-MK2 cells with CP-100-356, Method 2
For `COc1cc(C(=O)NC[C@](O)(c2cc3c(c(-c4cccc(F)c4Cl)n2)OC[C@]3(C)C(N)=O)C(F)(F)F)cc2cn(C3(F)CC3)nc12` [Example 611], the EC50 was < 200 nM. With `COc1cc(C(=O)NC[C@](O)(c2cc3c(c(-c4ccsc4Cl)n2)OC[C@]3(C)C(N)=O)C2CC2)cc2cn(C3CC3)nc12` [Example 415] the EC50 was < 200 nM. In the case of `COc1cc(C(=O)NC[C@](O)(c2cc3c(c(-c4cc(Cl)c(F)cc4F)n2)OC[C@]3(C)C(N)=O)C(C)C)cc2cn(C3CC3)nc12` [Example 476], the EC50 is reported as < 200 nM. `COc1cc(C(=O)NCC(O)(c2cccc(F)c2)c2cc3c(c(-c4cc(C(F)(F)F)ncc4Cl)n2)OC[C@]3(C)C(N)=O)cc2cn(C3CC3)nc12` (some centres unmarked) [Example 379] was tested, and the EC50 was > 200 nM. For `C[C@]1(C(N)=O)COc2c1cc([C@@](O)(CNC(=O)c1cc(Cl)c3[nH]ncc3c1)C1CC1)nc2-c1cc(F)c(F)cc1F` [Example 119], the EC50 was > 200 nM. With `COc1cc(C(=O)NC[C@](O)(c2cc3c(c(-c4ccnc(C(F)F)c4Cl)n2)OC[C@]3(C)C(N)=O)C2CC2)cc2oc(C(F)F)nc12` [Example 542] the EC50 was < 200 nM. `COc1cc(C(=O)NC[C@](O)(c2cc3c(c(-c4ccc(F)c(Cl)c4Cl)n2)OC[C@]3(C)C(N)=O)C2CC2)cc2cc(Cl)cnc12` [Example 320] was tested, and the EC50 was < 200 nM. `COc1cc(C(=O)NC[C@](O)(c2cc3c(c(-c4cc(F)c(F)cc4F)n2)OC[C@]3(C)C(N)=O)C2CC2)cc2cc(Cl)nnc12` [Example 114] was tested, and the EC50 was < 200 nM. For `COc1cc(C(=O)NC[C@@](O)(c2ccccc2)c2cc3c(c(-c4ccnc(F)c4Cl)n2)OC[C@]3(C)C(N)=O)cc2cn(C3(F)CC3)nc12` [Example 344], the EC50 was < 200 nM. With `COc1cc(C(=O)NC[C@@](O)(c2cccc(F)c2)c2cc3c(c(-c4ccnc(C)c4Cl)n2)OC[C@]3(C)C(N)=O)cc2cn(C3CC3)nc12` [Example 378] the EC50 was < 200 nM. For `COc1cc(C(=O)NC[C@](O)(c2cc3c(c(-c4ccnc(F)c4Cl)n2)OC[C@]3(C)C(N)=O)C2CC2)cc2cn(C3CC3)nc12` [Example 122], the EC50 was < 200 nM. `COc1cc(C(=O)NC[C@](O)(c2cc3c(c(-c4cscc4C)n2)OC[C@]3(C)C(N)=O)C2CC2)cc2cn(C3CC3)nc12` [Example 414] was tested, and the EC50 was < 200 nM. For `COc1cc(C(=O)NC[C@](O)(c2cc3c(c(-c4ccc5c(c4Cl)OC(F)(F)O5)n2)OC[C@]3(C)C(N)=O)C2CC2)cc2cc(Cl)cnc12` [Example 105], the EC50 was < 200 nM. `COc1nccc(-c2nc([C@@](O)(CNC(=O)c3cc(OC)n4nc(C5CC5)cc4c3)C3CC3)cc3c2OC[C@]3(C)C(N)=O)c1Cl` [Example 582] was tested, and the EC50 was < 200 nM. In the case of `COc1cc(C(=O)NC[C@@](O)(c2cccc(F)c2)c2cc3c(c(-c4cc(F)ncc4Cl)n2)OC[C@]3(C)C(N)=O)cc2cn(C3CC3)nc12` [Example 376], the EC50 is reported as < 200 nM. In the case of `COc1cc(C(=O)NC[C@@](O)(c2ccccc2)c2cc3c(c(-c4ccnc(F)c4Cl)n2)OC[C@]3(C)C(N)=O)cc2cc(Cl)cnc12` [Example 346], the EC50 is reported as < 200 nM. For `COc1cc(C(=O)NC[C@](O)(c2cc3c(c(-n4ccc5ccccc54)n2)OC[C@]3(C)C(N)=O)C2CC2)cc2cn(C3CC3)nc12` [Example 443], the EC50 was < 200 nM.

From patent US20240368174A1, “Antiviral Heterocyclic Compounds” (Enanta Pharmaceuticals, Inc., priority 2023, published 2024)
